Source: patent US11000568B2, “Means and methods for treating copper-related diseases” (HELMHOLTZ ZENTRUM MÜNCHEN—DEUTSCHES FORSCHUNGSZENTRUM FÜR …, priority 2015, dated 2021)
Entries after “also recorded” stand apart in the source; their conditions may differ. Structures can show the parent of a compound that is named as a salt.

Tests used:
[1] = system: LEC rats; settings: 100 mg/kg bw/d via drinking water, long-term; cited from earlier work
[2] = system: LPP−/− livers; test: Two hour LPP−/− liver perfusion; set-up: species or system rat; settings: MB 0.7 μM, TTM 0.8 μM, D-PA 2.2 μM, TETA 1.8 μM
Experimental: LPP−/− livers (animal age 79-83 days) were perfused in a single pass manner with Krebs-Ringer bicarbonate solution containing 5 mM glucose (Beuers et al., J Biol Chem 278, 17810-17818 (2003)). The medium was gassed with 95% O2/5% CO2 and kept at 37° C. Rat livers were perfused via the portal vein (Beuers et al., log. cit.), the right lateral liver lobe was ligated and its copper content served as pre-perfusion control (Beuers et al., Hepatology 33, 1206-1216 (2001)). After cannulation of the bile duct a 20 min sample of bile was collected before the copper chelators were continuously added to the perfusion medium. Bile and outflow perfusate were collected in 10 min intervals as described elsewhere (Beuers et al., log. cit.). D-PA*HCl (20 mg/108 μmol), TETA*2HCl (20 mg/91 μmol), TTM*2NH4 (10 mg/38 μmol) and MB (40 mg/35 μmol) were each dissolved in 50 ml 0.9% NaCl, and continuously added to the perfusion medium via a perfusion pump (Perfusor, Braun, Melsungen) within 2 hours. The molar ratios of the chelators applied was MB 1:D-PA 3.1:TETA 2.6:TTM 1.1. LDH in the outflow perfusate was measured every ten minutes as described (Beuers et al., log. cit.). Control perfusions were done with Krebs-Ringer bicarbonate solution only.

[3] = system: LPP−/− rats; test: Short-term in vivo treatment of LPP−/− rats; set-up: species or system rat; settings: MB i.p. 3 or 5 days; D-PA or TETA 4 days
Experimental: LPP rats were treated with MB either by daily i.p. injections for 3 or 5 consecutive days, or twice daily i.p. injections for 8 consecutive days at a dose of 150 mg/kg bw or 4 days via the drinking water with D-PA at a dose of 100 mg/kg bw/d or TETA at 480 mg/kg bw/d, respectively (Togashi et al., Hepatology 15, 82-87 (1992)). Based on a mean copper content of 250 μg/g w.w. in Atp7b−/− rat livers at the age of treatment start (Zischka et al., log. cit.), a LPP−/− rat liver of 8 g w.w. contains around 31.5 μmol copper. Single MB doses were chosen equimolar to this copper amount. […] Assuming 40 ml water intake per day for a rat weighing 250 g this translates to a dose of 480 mg/kg bw/d. With respect to the mean liver copper content in LPP−/− rats aged 85 days, the molar ratios of the chelators applied was MB 1:D-PA 4.3:TETA 17.4, respectively. For the intravenous MB application (150 mg/kg bw), catheters connected to a PinPort™ (Instech Laboratories, Inc., USA) were inserted in the femoral vein of the rat, fixed with non-absorbable sutures and subcutaneously tunneled and exteriorized through a skin incision made between the shoulders.
Formalin-fixed, paraffin-embedded liver samples were cut into 4 μm-thick sections and either stained with hematoxylin and eosin for standard analyses or with Masson trichrome for analysis of fibrotic tissue. AST activity and bilirubin concentration in animal plasma or serum were measured with a Reflotron system (Roche).
Copper in liver homogenates, cell lysates and mitochondrial preparations were analyzed by ICP-OES (Ciros Vision, SPECTRO Analytical Instruments GmbH) after wet ashing of samples with 65% nitric acid (Zischka et al., log. cit.).
The efficiency of a short-term MB treatment schedule was assessed in LPP−/− rats at the age of liver disease onset (85-90 days). Animals received MB (i.p.) either for 3 or 5 days or the clinically used copper chelators D-PA or TETA, which were orally administered for 4-days.

[4] = system: LPP−/− mitochondria; test: Chelator treatment of freshly isolated copper burdened LPP−/− mitochondria (copper extraction); set-up: species or system rat; settings: 30 min incubation

Compound | mitochondrial copper [3] | serum AST levels [3] | whole liver copper [3] | further results
CC(C)(S)[C@@H](N)C(=O)O.Cl [D-PA, D-penicillamine*HCl, reference compound] | No copper reduction | unable to avoid the increase of serum AST levels | No copper reduction | onset of hepatitis [1]: successfully prevent the onset of hepatitis; copper released into bile [2]: did not provoke any detectable release of copper into the bile; also recorded: did not bring copper into bile
NCCNCCNCCN [TETA, trientine*2 HCl, reference compound] | No copper reduction | unable to avoid the increase of serum AST levels | No copper reduction | copper released into bile ([2]; HCl): did not provoke any detectable release of copper into the bile; also recorded: did not bring copper into bile
CC(NC(=O)C(C)NC(=S)C1N=C(C(NC(=O)C(CO)NC(=O)C(C)NC(=S)C2N=C(C(=O)CCCNC(=N)N)NC2=O)C(C)OS(=O)(=O)O)OC1=O)C(=O)O (centres unmarked) [mb-SB2] |  |  |  | copper depletion from LPP−/− mitochondria ([4]; 1 mM, mitochondria from three LPP−/− rats, vs buffer treated control): depletes copper at least as effective as another MB peptide mb-OB3b; also recorded: decreased at least as effective as the MB peptide mb-OB3b
tetrathiomolybdate*2 NH4 [TTM] |  |  |  | copper associated with LPP−/− mitochondria ([4]; 2 mM each): rapidly decreased copper
